Experimental data: patent US11415579B2, “Assay for measuring a rate of reaction between a target and a ligand candidate” (Imperial College Innovations Ltd., priority 2016, dated 2022)

How the values were obtained:
Cdk2(S276C) (C177A) = molecular target: T1, Cdk2(S276C) (C177A) (Homo sapiens, UniProt P24941, C177A/S276C); experiment: Kinetic thiol consumption assay with Cdk2 mutant S276C; assay type: binding; parameters: key to Rate enhancement, Cdk2 S276C: rate constant with Cdk2 ÷ rate constant with model thiol (fold); details: additional mutation C177A; for Rate constant with Cdk2 S276C: Protein: Cdk2, cysteine position S276C, in h^-1
T1 construct: poly-histidine; made in house; host or cells: E. coli
Description: (§1) To wells containing 150 μL thiol (Cdk2 or model thiol) (5 μM) in degassed phosphate buffer (pH 8) was added immobilized TCEP beads (2% v/v).
(§2) After incubation of the fluorescence plates for 1 hour at room temperature, fluorescence measurements (excitation/emission of 380/470 nm) were taken on a PerkinElmer EnVision multilabel plate reader and processed with EnVision Workstation version 1.12.
(§3) Fluorescence measurements were normalized against a DMSO/thiol only control and plotted against time.
(§4) Rate constants were calculated using GraphPad software Prism version 6 by fitting a first order exponential decay to the data. The rate constant for each acrylamide with Cdk2 was divided by the rate constant for that fragment with the model thiol to provide the rate enhancement for each ligand candidate.
(§5) A further set of set of additional Cdk2 mutants were screened, all containing the C177A mutation and therefore with only one cysteine on the surface: • F80C (without the K278C mutation) • H71C • S276C • N272 • T182C • R122C • S181C
(§6) Mutations were introduced by site-directed mutagenesis and the resulting cDNA was cloned into the pRSETA bacterial expression vector to generate a poly-histidine tagged Cdk2 fusion that was purified from E. coli using standard techniques.

Cdk2(C177A, F80C) = molecular target: T2, Cdk2(C177A, F80C) (Homo sapiens, UniProt P24941, C177A/F80C); experiment: Kinetic thiol consumption assay with Cdk2 mutant F80C, incl. kobs versus concentration (Kd, k2); assay type: binding; parameters: key to Rate enhancement, Cdk2 F80C: Cdk2 rate constant divided by model-thiol rate constant; details: additional mutation C177A; for Rate constant with Cdk2 F80C: Protein: Cdk2, cysteine position F80C, in h^-1
T2 construct: poly-histidine; made in house; host or cells: E. coli
Description: Therefore the assay can be used to calculate both k2 and Kd by experimentally determining kobs at a suitable range of ligand candidate concentrations. Typically Kd and k2 would then be determined by fitting a hyperbolic curve to a plot of kobs against ligand candidate concentration (FIG. 9).
as §1, §2, §3, §4, §5, §6
Rate constants were calculated as described in the methodology section of Examples 1 and 2.

Cdk2(T182C) (C177A) = molecular target: T3, Cdk2(T182C) (C177A) (Homo sapiens, UniProt P24941, C177A/T182C); experiment: Kinetic thiol consumption assay with Cdk2 mutant T182C; assay type: binding; parameters: key to Rate enhancement, Cdk2 T182C: rate constant with Cdk2 ÷ rate constant with model thiol (fold); details: additional mutation C177A; for Rate constant with Cdk2 T182C: Protein: Cdk2, cysteine position T182C, in h^-1
T3 construct: poly-histidine; made in house; host or cells: E. coli
Description: as §1, §2, §3, §4, §5, §6

Cdk2(S181C) (C177A) = molecular target: T4, Cdk2(S181C) (C177A) (Homo sapiens, UniProt P24941, C177A/S181C); experiment: Kinetic thiol consumption assay with Cdk2 mutant S181C; assay type: binding; parameters: key to Rate enhancement, Cdk2 S181C: rate constant with Cdk2 ÷ rate constant with model thiol (fold); details: additional mutation C177A; for Rate constant with Cdk2 S181C: Protein: Cdk2, cysteine position S181C, in h^-1
T4 construct: poly-histidine; made in house; host or cells: E. coli
Description: as §1, §2, §3, §4, §5, §6

Cdk2(N272C) (C177A) = molecular target: T5, Cdk2(N272C) (C177A) (Homo sapiens, UniProt P24941, C177A/N272C); experiment: Kinetic thiol consumption assay with Cdk2 mutant N272C; assay type: binding; parameters: key to Rate enhancement, Cdk2 N272: rate constant with Cdk2 ÷ rate constant with model thiol (fold); details: for Rate enhancement, Cdk2 N272: Cdk2 N272, additional mutation C177A; for Rate constant with Cdk2 N272C: Protein: Cdk2, cysteine position N272C, additional mutation C177A, in h^-1
T5 construct: poly-histidine; made in house; host or cells: E. coli
Description: as §1, §2, §3, §4, §5, §6

Cdk2(R122C) (C177A) = molecular target: T6, Cdk2(R122C) (C177A) (Homo sapiens, UniProt P24941, C177A/R122C); experiment: Kinetic thiol consumption assay with Cdk2 mutant R122C; assay type: binding; parameters: key to Rate enhancement, Cdk2 R122C: rate constant with Cdk2 ÷ rate constant with model thiol (fold); details: additional mutation C177A; for Rate constant with Cdk2 R122C: Protein: Cdk2, cysteine position R122C, in h-1
T6 construct: poly-histidine; made in house; host or cells: E. coli
Description: as §1, §2, §3, §4, §5, §6

[1] = molecular target: T7, human cyclin-dependent kinase 2 (Cdk2) (Homo sapiens, UniProt P24941); experiment: Kinetic thiol consumption assay with wild type Cdk2 (C177); assay type: binding; parameters: key to Rate enhancement, Cdk2 WT: k(Cdk2) divided by k(model thiol); Rate constant with Cdk2 (k(Cdk2)): unit not given here; details: for Rate constant with Cdk2 (k(Cdk2)): 500 μM ligand, 5 μM thiol, phosphate buffer pH 8; for Rate enhancement, Cdk2 WT: no additional mutations; for Rate constant with Cdk2 WT: Protein: Cdk2, cysteine position WT, in h^-1; for k(Cdk2)/k(GSH) rate enhancement: model thiol glutathione
T7 construct: poly-histidine; made in house; host or cells: E. coli
Description: (§7) A library of 120 acrylamides was screened against a) human cyclin-dependent kinase 2 (Cdk2, which contains one surface exposed cysteine residue—C177), prepared by cloning cDNA into the pRSETA bacterial expression vector to generate a poly-histidine tagged Cdk2 fusion that was purified from E. coli using standard techniques, and b) a model thiol (specific details are given below). The structures of these 120 acrylamides are set out in Table 1, above.
as §1, §2, §3, §4

Cdk2(H71C) (C177A) = molecular target: T8, Cdk2(H71C) (C177A) (Homo sapiens, UniProt P24941, C177A/H71C); experiment: Kinetic thiol consumption assay with Cdk2 mutant H71C; assay type: binding; parameters: key to Rate enhancement, Cdk2 H71C: rate constant with Cdk2 ÷ rate constant with model thiol (fold); details: additional mutation C177A; for Rate constant with Cdk2 H71C: Protein: Cdk2, cysteine position H71C, in h^-1
T8 construct: poly-histidine; made in house; host or cells: E. coli
Description: as §1, §2, §3, §4, §5, §6

[2] = Kinetic thiol consumption assay with model thiol glutathione; assay type: physicochemical; parameters: Rate constant with glutathione (k(GSH)): unit not given here; details: for Rate constant with glutathione (k(GSH)): 500 μM ligand, 5 μM thiol, phosphate buffer pH 8; for Rate constant with Glutathione: Protein: Glutathione, cysteine position NA, in h-1
Description: as §7, §1, §2, §3, §4
The model thiol in Example 1 is glutathione (GSH). Hits were defined as fragments where kCdk2/kGSH>5.8 (empirically determined as 3 standard deviations over the mean).

SMILES | Rate enhancement, Cdk2 S276C (Cdk2(S276C) (C177A)) | Rate constant with Cdk2 S276C (Cdk2(S276C) (C177A)) | Rate enhancement, Cdk2 F80C (Cdk2(C177A, F80C)) | Rate constant with Cdk2 F80C (Cdk2(C177A, F80C)) | Rate enhancement, Cdk2 T182C (Cdk2(T182C) (C177A)) | Rate constant with Cdk2 T182C (Cdk2(T182C) (C177A)) | Rate enhancement, Cdk2 S181C (Cdk2(S181C) (C177A)) | Rate constant with Cdk2 S181C (Cdk2(S181C) (C177A)) | Rate enhancement, Cdk2 N272 (Cdk2(N272C) (C177A)) | Rate constant with Cdk2 N272C (Cdk2(N272C) (C177A)) | Rate enhancement, Cdk2 R122C (Cdk2(R122C) (C177A)) | Rate constant with Cdk2 R122C (Cdk2(R122C) (C177A)) | Rate constant with Cdk2 (k(Cdk2)) [1] | Rate enhancement, Cdk2 WT [1] | Rate constant with Cdk2 WT [1] | k(Cdk2)/k(GSH) rate enhancement [1] | Rate enhancement, Cdk2 H71C (Cdk2(H71C) (C177A)) | Rate constant with glutathione (k(GSH)) [2] | Rate constant with Glutathione [2] | Rate constant with Cdk2 H71C (Cdk2(H71C) (C177A))
C=CC(=O)NC1(C(N)=O)CCCCC1 [EL-1170] | 0.3126 | 0.0007587 | 0.5052 | 0.001226 | 0.5731 | 0.001391 | 0.953 | 0.002313 | 0.3641 | 0.0008836 | 0.304 | 0.0007379 | 0.00308 | 1.986 | 0.004821 | 1.271 | 0 | 0.00243 | 0.002427 | –
C=CS(=O)(=O)c1ccccc1 [EN001] | 0.5145 | 3.146 | 0.0006656 | 0.00407 | 1.394 | 8.524 | 0.06554 | 0.4008 | 0.3977 | 2.432 | 0.2211 | 1.352 | – | 1.608 | 9.832 | – | 0.3485 | – | 6.115 | 2.131
O=C(CCl)N1CCSc2ccccc21 [EN004] | 4.615 | 1.689 | 0.01666 | 0.006096 | 0 | – | 0.08978 | 0.03286 | 0.243 | 0.08895 | 0.1248 | 0.04566 | – | 4.361 | 1.596 | – | 0.3522 | – | 0.366 | 0.1289
C#CCN1CCCN(C(=O)C=C)CC1 [CA-196] | 0.4186 | 0.001518 | 0.4719 | 0.001711 | 2.74 | 0.009935 | 0.7592 | 0.002753 | 0.8296 | 0.003008 | 0.7394 | 0.002681 | 0.00372 | 1.03 | 0.003735 | 1.021 | 0 | 0.00365 | 0.003626 | –
C=CC(=O)N(Cc1ccco1)Cc1ccco1 [CA-099/153] | 2.266 | 0.481 | 0.1651 | 0.03506 | 2.038 | 0.4326 | 1.479 | 0.314 | 2.393 | 0.5081 | 2.423 | 0.5145 | – | 1.366 | 0.2899 | – | 0.2907 | – | 0.2123 | 0.06172
